# Source: patent US4598077A, “Amidine derivatives and cardiotonic compositions” (Torii & Co. Ltd., priority 1983, dated 1986)
# Structures can show the parent of a compound that is named as a salt. Where two headings read alike, the source gives them in different places.
# How the values were obtained:
# [1] = tested on: papillary muscle preparation; assay: Isolated, blood-perfused papillary muscle preparation, developed tension (Table 1); set-up: species or system Mongrel dogs; conditions: Canis lupus familiaris, close-arterial injection, read-out: Papillary muscle preparation, % increase in developed tension; for activation at 0.03 mg: dose 30 μg; for activation at 0.1 mg: dose 100 μg; for activation at 0.3 mg: dose 300 μg
# Description: Mongrel dogs of either sex weighting 7.5-10 kg were anesthetized with sodium pentobarbital (30 mg/kg, i.v.). Each animal was given an intravenous dose of sodium heparin (500 units/kg), thereafter, the heart was removed and placed in cold Tyrode solution. The isolated and cross-circulated right atrium and papillary muscle preparations were arranged for perfusion from a donor dog as follows. The donor dog was also anesthetized with sodium pentobarbital (30 mg/kg, i.v.); heparin (500 units/kg) was given intravenously immediately before the perfusion began. (a) The isolated, blood-perfused papillary muscle preparation. The anterior septal artery was dissected and cannulated with polyethylene tubing. The tendinous end of the papillary muscle was connected to a strain-gauge transducer by a fine silk thread and the muscles were under about 2 g of resting tension. The papillary muscle preparation was electrically driven at a constant frequency of 120/min with rectangular pulses of 1-3 V and 5 msec duration. The preparation of the blood-perfused papillary muscle has been described in detail by Endoh and Hashimoto Am. J. Physiol, 218, 1459-1463 (1970). Each preparation was perfused with the arterial blood from the carotid artery of the donor dog at a constant perfusion pressure of 100 mmHg by means of a peristaltic pump. The venous effluent from the preparations was collected in a reservoir and returned to the donor dog through the jugular vein. Test compounds used in these experiments were dissolved in vehicle solution and were injected closearterially to the preparations. The effects of each compound on the developed tension and sinuo rate were evaluated as a percentage change in values determined before and after administration of the compound. In Table 1 are shown such changes in terms of the percentage increase after administration.
# right atrium preparation = assay: Isolated, blood-perfused right atrium preparation, sinus rate (Table 1); set-up: species or system Mongrel dogs; conditions: Canis lupus familiaris, close-arterial injection, read-out: Right atrium preparation; for activation at 0.03 mg: dose 30 μg; for activation at 0.03 mg / activation at 0.1 mg / activation at 0.3 mg: % increase in sinus rate; for activation at 0.3 mg: dose 300 μg
# Description: Mongrel dogs of either sex weighting 7.5-10 kg were anesthetized with sodium pentobarbital (30 mg/kg, i.v.). Each animal was given an intravenous dose of sodium heparin (500 units/kg), thereafter, the heart was removed and placed in cold Tyrode solution. The isolated and cross-circulated right atrium and papillary muscle preparations were arranged for perfusion from a donor dog as follows. The donor dog was also anesthetized with sodium pentobarbital (30 mg/kg, i.v.); heparin (500 units/kg) was given intravenously immediately before the perfusion began. (b) The isolated, blood-perfused right atrium preparation. The sinus node artery was cannulated at its origin in the right coronary artery. A right atrial electrogram was obtained from bipolar electrodes which were placed in close proximity to the sinoatrial node. The sinus rate was recorded by a cardiotachometer triggered by the right atrial electrogram. The details of the bloodperfused right atrium preparation have been described by Chiba et al. (Tohoku J. exp. Med., 107, 101-102 (1972) and Kubota and Hashimoto (Naunyn-Schmiedeberg's Arch. Pharmacol., 278, 135-150 (1973)). Each preparation was perfused with the arterial blood from the carotid artery of the donor dog at a constant perfusion pressure of 100 mmHg by means of a peristaltic pump. The venous effluent from the preparations was collected in a reservoir and returned to the donor dog through the jugular vein. Test compounds used in these experiments were dissolved in vehicle solution and were injected closearterially to the preparations. The effects of each compound on the developed tension and sinuo rate were evaluated as a percentage change in values determined before and after administration of the compound. In Table 1 are shown such changes in terms of the percentage increase after administration.
# [2] = tested on: anesthetized open-chest dogs; assay: Cardiovascular effect in anesthetized open-chest dogs (Table 2); type: in vivo, Mongrel dogs; conditions: femoral vein; for change in vivo at 0.1 mg/kg / change in vivo at 0.3 mg/kg / change in vivo at 0.03 mg/kg / change in vivo at 0.01 mg/kg: Canis lupus familiaris, iv
# Description: Mongrel dogs of either sex weighing 9-15 kg were anesthetized with sodium pentobarbital (30 mg/kg, i.v.). The heart was exposed by thoractomy by the left fifth intercostal incision under artificial respiration. Aortic flow was measured by the probe of electromagnetic flowmeter placed around the ascending aorta. Myocardial contractility was measured by the maximal rate of rise of left ventricular pressure which was recorded from a needle inserted into the ventricular cavity. The systemic blood pressure was measured with a pressure transducer by means of a polyethylene cannular inserted into the femoral artery. The heart rate was recorded by a cardiotrachometer triggered by R wave of electrocargiogram (Lead II). Test compounds were dissolved in vehicle solution and were injected into the femoral vein. The effects of each compound on the cardiac contractility and aortic flow were evaluated as a percentage change in values determined before and after administration of the compound. In Table 2 are shown such changes in terms of the percentage increase after administration.
# [3] = 0.1 mg/kg, read-out: Increase in aortic flow (%)
# [4] = 0.1 mg/kg, read-out: Increase in cardiac contractility (%)
# [5] = 0.3 mg/kg, read-out: Increase in aortic flow (%)
# [6] = 0.3 mg/kg, read-out: Increase in cardiac contractility (%)
# [7] = 0.03 mg/kg, read-out: Increase in aortic flow (%)
# [8] = 0.03 mg/kg, read-out: Increase in cardiac contractility (%)
SMILES,activation at 0.03 mg [1] [%],activation at 0.1 mg [1] [%],activation at 0.03 mg (right atrium preparation) [%],activation at 0.1 mg (right atrium preparation; dose 100 μg) [%],"change in vivo at 0.1 mg/kg [2, 3] [%]","change in vivo at 0.1 mg/kg [2, 4] [%]","change in vivo at 0.3 mg/kg [2, 5] [%]","change in vivo at 0.3 mg/kg [2, 6] [%]",activation at 0.3 mg [1] [%],activation at 0.3 mg (right atrium preparation) [%],"change in vivo at 0.03 mg/kg [2, 7] [%]","change in vivo at 0.03 mg/kg [2, 8] [%]",% decrease in aortic flow (in parentheses) ([2]; 0.3 mg/kg) [%],also measured
"CCCCNC(=N)c1ccc(CCc2ccc(CN)cc2)cc1.Cl.Cl [Compound 4, 4-[2-(4-Aminomethylphenyl)ethyl]-N-n-butyl-benzamidine dihydrochloride]",45.8,76.5,19,30.6,20,26.1,50,52.9,,,,,,% decrease in cardiac contractility (in parentheses) ([2]; 0.3 mg/kg): -3.4%
"CNC(=N)c1ccc(C=Cc2ccc(CN)cc2)cc1 [Compound 7, 4-[2-(4-aminomethylphenyl)ethenyl]-N-methylbenzamidine dihydrochloride]",,44.7,,8.3,4.2,3.1,13.8,16.7,66,28.2,,,,
"CNC(=N)c1ccc(OCc2ccc(C=CCN)cc2)c(C(=O)c2ccccc2)c1 [Compound 12, 4-[4-(3-amino-1-propenyl)benzyloxy]-3-benzoyl-N-methylbenzamidine dihydrochloride]",46.2,77.8,23.3,31.6,8.7,40,,,,,6.1,18.8,,
"CNC(=N)c1ccc(CCc2ccc(CN)cc2)c([N+](=O)[O-])c1.Cl.Cl [Compound 16, 4-[2-(4-Aminomethylphenyl)ethyl]-N-methyl-3-nitrobenzamidine dihydrochloride]",26,70.2,21.9,29.7,9,32,16.3,69.4,,,,,-7.0,
"CNC(=N)c1ccc(CCc2ccc(CN)cc2[N+](=O)[O-])cc1 [Compound 13, N-Methyl-4-[2-(4-aminomethyl-2-nitrophenyl)ethyl]benzamidine dihydrochloride]",64.2,95.5,32.3,35.9,12.1,66.7,,,,,5.7,29,,
"COc1cc(CN)ccc1CCc1ccc(C2=NCCN2)cc1 [Compound 20, 2-{4-[2-(4-Aminomethyl-2-methoxyphenyl)ethyl]phenyl}imidazoline dihydrochloride]",,72.2,,26.8,,,,,104,45.7,7.9,78.6,,% decrease in aortic flow (in parentheses) ([2]; 0.03 mg/kg): -1.1%; % decrease in cardiac contractility (in parentheses) ([2]; 0.03 mg/kg): -7.8%
"CNC(=N)c1ccc(CCc2ccc(CN)cc2OC)cc1 [Compound 3, 4-[2-(4-Aminomethyl-2-methoxyphenyl)ethyl]-N-methylbenzamidine dihydrochloride]",73.3,115,17.9,32.5,,,,,,,21.7,24.6,,change in vivo at 0.01 mg/kg ([2]; read-out: Increase in aortic flow (%)): 4.1%; change in vivo at 0.01 mg/kg ([2]; read-out: Increase in cardiac contractility (%)): 14%
"Br.Br.CN=C(NC)c1ccc(CCc2ccc(CN)cc2)cc1 [Compound 14, N,N'-Dimethyl-4-[2-(4-aminomethylphenyl)ethyl]benzamidine dihydrobromide]",59,100,28.9,31.8,8.7,30,32.7,47.5,,,,,-16.3,% decrease in cardiac contractility (in parentheses) ([2]; 0.3 mg/kg): -6.8%
"COc1cc(CN)ccc1CCc1ccc(C(=N)NCCc2ccccn2)cc1.Cl.Cl.Cl [Compound 19, 4-[2-(4-Aminomethyl-2-methoxyphenyl)ethyl]-N-[2-(2-pyridyl)ethyl]benzamidine trihydrochloride]",,72.4,,21.9,9.2,20,11.9,129,108,35.8,,,-1.2,% decrease in cardiac contractility (in parentheses) ([2]; 0.3 mg/kg): -7.1%
"CNC(=N)c1ccc(CCc2ccc(CN)cc2)cc1 [Compound 1, 4-[2-(4-aminomethylphenyl)ethyl]-N-methylbenzamidine dihydrochloride]",44.1,78.1,26.2,34.1,30.4,42.1,38.8,57.5,,,,,,
"CC(=O)O.N=C(N)c1ccc(OCc2ccc(CN)cc2)c(C(=O)c2ccccc2)c1 [Compound 9, 4-(4-Aminomethylbenzyloxy)-3-benzoylbenzamidine acetate]",,52.2,,15.5,3.9,12.5,,,71.7,24.3,,,,% decrease in aortic flow (in parentheses) ([2]; 0.1 mg/kg): -7.9%; % decrease in cardiac contractility (in parentheses) ([2]; 0.1 mg/kg): -7.1%
"N=C(N)c1ccc(OCc2ccc(CCCN)cc2)c(C(=O)c2ccccc2)c1 [Compound 11, 4-[4-(3-Aminopropyl)benzyloxy]-3-benzoylbenzamidine dihydrochloride]",48.8,82.5,32,71.4,7.5,14.3,,,,,,,,
"CN=C(NC)c1ccc(CCc2ccc(CN)cc2[N+](=O)[O-])cc1.Cl.Cl [Compound 18, 4-[2-(4-Aminomethyl-2-nitrophenyl)ethyl]-N,N'-dimethylbenzamidine dihydrochloride]",,64,,14,14.3,59.3,23.7,155,86.5,34.8,,,-5.3,"inhibition at 0.1 mg (right atrium preparation; dose 100 μg, % decrease in sinus rate (in parentheses)): 1.8%"
